Experimental data published in patent publication US20180311238A1, “Selective Agonist Of a6 Containing nAChRs” (Saniona A/S, priority 2017, published 2018).

Test system: reserpine-induced tremors
Test: Reserpine-induced tremors in rats (tremor monitor power spectra)
Format: in vivo, rat
Settings: for effect on reserpine-induced tremors in pilot studies: rats, L-DOPA with benserazide
From the text: Parkinson's disease is associated with severe dopamine deficiency caused by neurodegeneration of dopaminergic cell bodies residing in Substantia Nigra pars compacta. As alpha6 nAChRs are enriched in the nigrostriatal dopamine pathway, activating this receptor may ameliorate symptoms in nigro-striatal dopamine deficiency models. Reserpine injections to rodents result in depletion of monoamines in the nigro-striatal dopamine pathway, resulting in catalepsy and tremors. Both behaviours can be quantified using dedicated tremor boxes.
Six groups of male Sprague Dawley rats (250-300 grams) were subjected to the following treatment schedules, and effects on power spectra, assessed in automated tremor monitors were evaluated for 30 minutes: • Vehicle+vehicle • Vehicle+reserpine (1 mg/kg) • 9-Methyl-3-pyridin-3-yl-3,9-diaza-bicyclo[3.3.1]nonane (0.1 mg/kg)+reserpine (1 mg/kg) • 9-Methyl-3-pyridin-3-yl-3,9-diaza-bicyclo[3.3.1]nonane (1.0 mg/kg)+reserpine (1 mg/kg) • L-DOPA (100 mg/kg)+reserpine (1 mg/kg) • 9-Methyl-3-pyridin-3-yl-3,9-diaza-bicyclo[3.3.1]nonane (1.0 mg/kg)+L-DOPA (100 mg/kg)+reserpine (1 mg/kg)
Reserpine was pre-treated i.v. 60 minutes prior to test start in a dose volume of 2 ml/kg. 9-Methyl-3-pyridin-3-yl-3,9-diaza-bicyclo[3.3.1]nonane was pre-treated s.c. 45 minutes prior to test start in a dose volume of 1 ml/kg. The dose of 9-methyl-3-pyridin-3-yl-3,9-diaza-bicyclo[3.3.1]nonane was based on 3H-epibatidin displacement studies showing half maximal displacement of specific binding of 3H-epibatidin in doses equaling 0.15 mg/kg in rats. L-DOPA was pre-treated i.p. 30 minutes prior to test start in a dose volume of 5 ml/kg. […] All animals dosed with L-DOPA was also dosed with the peripherally acting decarboxylase inhibitor Benserazide to prevent the peripheral break down of L-DOPA (benserazide: 50 mg/kg, s.c., 30 min. prior to test start in a dose volume of 1 ml/kg).

[1] = reserpine 1 mg/kg i.v., compound 0.1 and 1.0 mg/kg s.c., L-DOPA 100 mg/kg i.p. + benserazide

| Structure (SMILES) | activity per se of the L-DOPA dose in pilot studies (pilot studies, L-DOPA 100 mg/kg i.p.) | effect on reserpine-induced tremors in pilot studies (pilot studies) | effect on reserpine-induced tremors, AUC 20-43 Hz (reserpine 1 mg/kg i.v., L-DOPA 100 mg/kg i.p. + benserazide) | effect on reserpine-induced tremors, AUC 40-63 Hz [1] | reversal of reserpine-induced reduction of low frequency movements (catalepsy), AUC 3-13 Hz [1] |
| --- | --- | --- | --- | --- | --- |
| N[C@@H](Cc1ccc(O)c(O)c1)C(=O)O [L-DOPA] | marginal activity per se | reverse reserpine-induced tremors | without exerting any effects | reduces reserpine-induced tremors | Neither threshold dose of L-DOPA, nor 9-methyl-3-pyridin-3-yl-3,9-diaza-bicyclo[3.3.1]nonane or the combination of the two, was able to reverse this reduction |
| CN1CCc2cccc3c2[C@H]1Cc1ccc(O)c(O)c1-3 [apomorphine] |  | reverse reserpine-induced tremors |  |  |  |
